{"source": "PubChem BioAssay AID2060890", "about": "(Molecular Pharmacology Branch, DTP, NCI, 2025);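 also: spheroids exposed to agents for 7 days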;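 as to viability, T/C: 100% = DMSO vehicle wells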", "test_system": "LG0703-F948-PDC complex spheroid viability", "test": "Anticancer human tumor LG0703-F948-PDC patient-derived lung adenocarcinoma cell line growth inhibition [RAS]", "conditions": "for viability, T/C: stronger effect = lower value", "summary_of_the_method": "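Tumour cells grown as complex spheroids with HUVEC endothelial cells and mesenchymal stem cells, treated with RAS pathway inhibitor combinations. Each agent spans half-log steps from near clinical Cmax, or 10 microM where Cmax is unknown.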", "key": {"[1]": {"conditions": "curve of first compound, second compound 0.0316 µM"}, "[2]": {"conditions": "curve of first compound, second compound 0.1 µM"}, "[3]": {"conditions": "curve of first compound, second compound 0.316 µM"}, "[4]": {"conditions": "curve of first compound, second compound 1 µM"}, "[5]": {"conditions": "second compound 0.0316 µM, first compound 0.0316 µM"}, "[6]": {"conditions": "second compound 0.0316 µM, first compound 0.1 µM"}, "[7]": {"conditions": "second compound 0.0316 µM, first compound 0.316 µM"}, "[8]": {"conditions": "second compound 0.0316 µM, first compound 1 µM"}, "[9]": {"conditions": "second compound 0.0316 µM, first compound 3.16 µM"}, "[10]": {"conditions": "second compound 0.0316 µM, first compound 10 µM"}, "[11]": {"conditions": "second compound 0.1 µM, first compound 0.0316 µM"}, "[12]": {"conditions": "second compound 0.1 µM, first compound 0.1 µM"}, "[13]": {"conditions": "second compound 0.1 µM, first compound 0.316 µM"}, "[14]": {"conditions": "second compound 0.1 µM, first compound 1 µM"}, "[15]": {"conditions": "second compound 0.1 µM, first compound 3.16 µM"}, "[16]": {"conditions": "second compound 0.1 µM, first compound 10 µM"}, "[17]": {"conditions": "second compound 0.316 µM, first compound 0.0316 µM"}, "[18]": {"conditions": "second compound 0.316 µM, first compound 0.1 µM"}, "[19]": {"conditions": "second compound 0.316 µM, first compound 0.316 µM"}, "[20]": {"conditions": "second compound 0.316 µM, first compound 1 µM"}, "[21]": {"conditions": "second compound 0.316 µM, first compound 3.16 µM"}, "[22]": {"conditions": "second compound 0.316 µM, first compound 10 µM"}, "[23]": {"conditions": "second compound 1 µM, first compound 0.0316 µM"}, "[24]": {"conditions": "second compound 1 µM, first compound 0.1 µM"}, "[25]": {"conditions": "second compound 1 µM, first compound 0.316 µM"}, "[26]": {"conditions": "second compound 1 µM, first compound 1 µM"}, "[27]": {"conditions": "second compound 1 µM, first compound 3.16 µM"}, "[28]": {"conditions": "second compound 1 µM, first compound 10 µM"}}}
{"smiles": "CC1(O)CCCC1n1c(=O)c(C(F)F)cc2cnc(NC3CCN(S(C)(=O)=O)CC3)nc21", "note": "(stereo unspecified) + C=CC(=O)N1CCN(c2nc(OCC3CCCN3C)nc3c(F)c(-c4nc(N)cc(C)c4C(F)(F)F)c(Cl)cc23)C(C)C1", "values": [{"measurement": "IC50", "setting": "curve of first compound, second compound 0.00316 µM", "value": 4.29, "unit": "µM"}, {"measurement": "IC50", "setting": "curve of first compound, second compound 0.01 µM", "value": 4.16, "unit": "µM"}, {"measurement": "IC50", "setting": "[1]", "value": 4.67, "unit": "µM"}, {"measurement": "IC50", "setting": "[2]", "value": 4.25, "unit": "µM"}, {"measurement": "IC50", "setting": "[3]", "value": 4.34, "unit": "µM"}, {"measurement": "IC50", "setting": "[4]", "value": 4.13, "unit": "µM"}, {"measurement": "viability, T/C", "setting": "second compound 0.00316 µM, first compound 0.0316 µM", "value": 96.7, "unit": "%"}, {"measurement": "viability, T/C", "setting": "second compound 0.00316 µM, first compound 0.1 µM", "value": 91.2, "unit": "%"}, {"measurement": "viability, T/C", "setting": "second compound 0.00316 µM, first compound 0.316 µM", "value": 86.1, "unit": "%"}, {"measurement": "viability, T/C", "setting": "second compound 0.00316 µM, first compound 1 µM", "value": 76.8, "unit": "%"}, {"measurement": "viability, T/C", "setting": "second compound 0.00316 µM, first compound 3.16 µM", "value": 66.9, "unit": "%"}, {"measurement": "viability, T/C", "setting": "second compound 0.00316 µM, first compound 10 µM", "value": 14.1, "unit": "%"}, {"measurement": "viability, T/C", "setting": "second compound 0.01 µM, first compound 0.0316 µM", "value": 103, "unit": "%"}, {"measurement": "viability, T/C", "setting": "second compound 0.01 µM, first compound 0.1 µM", "value": 103, "unit": "%"}, {"measurement": "viability, T/C", "setting": "second compound 0.01 µM, first compound 0.316 µM", "value": 90.1, "unit": "%"}, {"measurement": "viability, T/C", "setting": "second compound 0.01 µM, first compound 1 µM", "value": 72.9, "unit": "%"}, {"measurement": "viability, T/C", "setting": "second compound 0.01 µM, first compound 3.16 µM", "value": 69, "unit": "%"}, {"measurement": "viability, T/C", "setting": "second compound 0.01 µM, first compound 10 µM", "value": 15.8, "unit": "%"}, {"measurement": "viability, T/C", "setting": "[5]", "value": 97.8, "unit": "%"}, {"measurement": "viability, T/C", "setting": "[6]", "value": 104, "unit": "%"}, {"measurement": "viability, T/C", "setting": "[7]", "value": 85.9, "unit": "%"}, {"measurement": "viability, T/C", "setting": "[8]", "value": 76.7, "unit": "%"}, {"measurement": "viability, T/C", "setting": "[9]", "value": 75.5, "unit": "%"}, {"measurement": "viability, T/C", "setting": "[10]", "value": 14.7, "unit": "%"}, {"measurement": "viability, T/C", "setting": "[11]", "value": 107, "unit": "%"}, {"measurement": "viability, T/C", "setting": "[12]", "value": 104, "unit": "%"}, {"measurement": "viability, T/C", "setting": "[13]", "value": 88, "unit": "%"}, {"measurement": "viability, T/C", "setting": "[14]", "value": 75.2, "unit": "%"}, {"measurement": "viability, T/C", "setting": "[15]", "value": 73.9, "unit": "%"}, {"measurement": "viability, T/C", "setting": "[16]", "value": 10.9, "unit": "%"}, {"measurement": "viability, T/C", "setting": "[17]", "value": 106, "unit": "%"}, {"measurement": "viability, T/C", "setting": "[18]", "value": 89.5, "unit": "%"}, {"measurement": "viability, T/C", "setting": "[19]", "value": 94.9, "unit": "%"}, {"measurement": "viability, T/C", "setting": "[20]", "value": 75.7, "unit": "%"}, {"measurement": "viability, T/C", "setting": "[21]", "value": 72, "unit": "%"}, {"measurement": "viability, T/C", "setting": "[22]", "value": 9.28, "unit": "%"}, {"measurement": "viability, T/C", "setting": "[23]", "value": 115, "unit": "%"}, {"measurement": "viability, T/C", "setting": "[24]", "value": 105, "unit": "%"}, {"measurement": "viability, T/C", "setting": "[25]", "value": 92.5, "unit": "%"}, {"measurement": "viability, T/C", "setting": "[26]", "value": 76.4, "unit": "%"}, {"measurement": "viability, T/C", "setting": "[27]", "value": 74.9, "unit": "%"}, {"measurement": "viability, T/C", "setting": "[28]", "value": 6.44, "unit": "%"}]}
{"smiles": "CC(C)NCC(C(=O)N1CCN(c2ncnc3c2C(C)CC3O)CC1)c1ccc(Cl)cc1", "note": "(stereo unspecified) + C#Cc1c(F)ccc2cc(O)cc(-c3ncc4c(N5CC6CCC(C5)N6)nc(OCC56CCCN5CC(F)C6)nc4c3F)c12", "values": [{"measurement": "IC50", "setting": "[1]", "value": 0.601, "unit": "µM"}, {"measurement": "IC50", "setting": "[2]", "value": 0.699, "unit": "µM"}, {"measurement": "IC50", "setting": "[3]", "value": 0.238, "unit": "µM"}, {"measurement": "IC50", "setting": "[4]", "value": 0.257, "unit": "µM"}, {"measurement": "IC50", "setting": "curve of first compound, second compound 3.16 µM", "value": 0.0594, "unit": "µM"}, {"measurement": "IC50", "setting": "curve of first compound, second compound 10 µM", "value": "< 0.0316", "unit": "µM"}, {"measurement": "viability, T/C", "setting": "[5]", "value": 90, "unit": "%"}, {"measurement": "viability, T/C", "setting": "[6]", "value": 67.3, "unit": "%"}, {"measurement": "viability, T/C", "setting": "[7]", "value": 59.7, "unit": "%"}, {"measurement": "viability, T/C", "setting": "[8]", "value": 46.4, "unit": "%"}, {"measurement": "viability, T/C", "setting": "[9]", "value": 29.8, "unit": "%"}, {"measurement": "viability, T/C", "setting": "[10]", "value": 26.1, "unit": "%"}, {"measurement": "viability, T/C", "setting": "[11]", "value": 86.1, "unit": "%"}, {"measurement": "viability, T/C", "setting": "[12]", "value": 68.2, "unit": "%"}, {"measurement": "viability, T/C", "setting": "[13]", "value": 64.5, "unit": "%"}, {"measurement": "viability, T/C", "setting": "[14]", "value": 40.5, "unit": "%"}, {"measurement": "viability, T/C", "setting": "[15]", "value": 37.5, "unit": "%"}, {"measurement": "viability, T/C", "setting": "[16]", "value": 22.9, "unit": "%"}, {"measurement": "viability, T/C", "setting": "[17]", "value": 82.5, "unit": "%"}, {"measurement": "viability, T/C", "setting": "[18]", "value": 60, "unit": "%"}, {"measurement": "viability, T/C", "setting": "[19]", "value": 44.5, "unit": "%"}, {"measurement": "viability, T/C", "setting": "[20]", "value": 35, "unit": "%"}, {"measurement": "viability, T/C", "setting": "[21]", "value": 31.1, "unit": "%"}, {"measurement": "viability, T/C", "setting": "[22]", "value": 15.8, "unit": "%"}, {"measurement": "viability, T/C", "setting": "[23]", "value": 68.6, "unit": "%"}, {"measurement": "viability, T/C", "setting": "[24]", "value": 63.6, "unit": "%"}, {"measurement": "viability, T/C", "setting": "[25]", "value": 47.5, "unit": "%"}, {"measurement": "viability, T/C", "setting": "[26]", "value": 25.6, "unit": "%"}, {"measurement": "viability, T/C", "setting": "[27]", "value": 20.4, "unit": "%"}, {"measurement": "viability, T/C", "setting": "[28]", "value": 10.2, "unit": "%"}, {"measurement": "viability, T/C", "setting": "second compound 3.16 µM, first compound 0.0316 µM", "value": 57.6, "unit": "%"}, {"measurement": "viability, T/C", "setting": "second compound 3.16 µM, first compound 0.1 µM", "value": 43.4, "unit": "%"}, {"measurement": "viability, T/C", "setting": "second compound 3.16 µM, first compound 0.316 µM", "value": 32.9, "unit": "%"}, {"measurement": "viability, T/C", "setting": "second compound 3.16 µM, first compound 1 µM", "value": 17.8, "unit": "%"}, {"measurement": "viability, T/C", "setting": "second compound 3.16 µM, first compound 3.16 µM", "value": 11.7, "unit": "%"}, {"measurement": "viability, T/C", "setting": "second compound 3.16 µM, first compound 10 µM", "value": 7.15, "unit": "%"}, {"measurement": "viability, T/C", "setting": "second compound 10 µM, first compound 0.0316 µM", "value": 34, "unit": "%"}, {"measurement": "viability, T/C", "setting": "second compound 10 µM, first compound 0.1 µM", "value": 33.9, "unit": "%"}, {"measurement": "viability, T/C", "setting": "second compound 10 µM, first compound 0.316 µM", "value": 17.9, "unit": "%"}, {"measurement": "viability, T/C", "setting": "second compound 10 µM, first compound 1 µM", "value": 8.97, "unit": "%"}, {"measurement": "viability, T/C", "setting": "second compound 10 µM, first compound 3.16 µM", "value": 3.2, "unit": "%"}, {"measurement": "viability, T/C", "setting": "second compound 10 µM, first compound 10 µM", "value": 0.42, "unit": "%"}]}
{"smiles": "C=CC(=O)Nc1cc(Nc2nccc(-c3cn(C)c4ccccc34)n2)c(OC)cc1N(C)CCN(C)C", "values": [{"measurement": "viability, T/C", "setting": "compound 0.00316 µM", "value": "90.6% [middle of 4 runs]"}, {"measurement": "viability, T/C", "setting": "compound 0.01 µM", "value": "50.2% [middle of 4 runs]"}, {"measurement": "viability, T/C", "setting": "compound 0.0316 µM", "value": "21.9% [middle of 4 runs]"}, {"measurement": "viability, T/C", "setting": "compound 0.1 µM", "value": "16.2% [middle of 4 runs]"}, {"measurement": "viability, T/C", "setting": "compound 0.316 µM", "value": "17.2% [middle of 4 runs]"}, {"measurement": "viability, T/C", "setting": "compound 1 µM", "value": "12.8% [middle of 4 runs]"}, {"measurement": "IC50", "setting": "curve of compound", "value": "10.1 nM [middle of 4 runs]"}]}
